# Measurements reported in patent US8969249B2, “Synthesis and biological activity of bicyclic ABA analogs” (National Research Council of Canada, priority 2004, dated 2015).
# How the values were obtained:
# [1] = tested on: Arabidopsis thaliana (Columbia wild type) seeds; assay: seed germination inhibition assay; format: in vivo; conditions: for germination index: lowest concentration of 0.33 μM
# Description: (§1) In yet an additional embodiment, bicyclic ABA and analogs of the present invention may be used in a process for inhibiting seed germination. In one embodiment, bicyclic ABA is used in a germination assay of Arabidopsis thaliana (Columbia wild type) seeds over a wide range of concentrations (0.33-33 μM). Similar treatments were performed for ABA [1] (both enantiomers) to allow for a direct comparison between ABA and bicyclic ABA (both enantiomers). The results are expressed in terms of germination indices, which summarize the rate and extent of germination over the time of the experiment at a given concentration. […] At the lowest concentration of 0.33 μM, the germination index for (+)-ABA (1) was almost 0.4, compared with less than 0.1 in the case of (+) bicyclic ABA [8].
# as §1, with “Bicyclic” for “In yet an additional embodiment, bicyclic”, “produced using the process” for “and analogs”, “was also studied” for “may be used in a process for inhibiting seed germination. In one embodiment, bicyclic ABA is used”, “μM) (FIG. 7).” for “μM).”, “[1]” for “(1)”, “[8]. […] It was only active at concentrations of ≧1 μM.” for “[8].”
# Arabidopsis thaliana (Columbia wild type) seed germination inhibition studies were performed as described by Cutler et. al. (23). The treatments were performed in duplicate with 50 seeds per plate and incubated at 24° C. with 16 hr days and 8 hr nights for the duration of the test (7 days).
# [2] = tested on: suspension-cultured cells of maize (Black Mexican Sweet); assay: growth inhibition assay using suspension-cultured corn cells; format: cell-based; conditions: for inhibition of growth of suspension-cultured maize cells: dose-dependent over concentration range 0.1-10.0 μM
# Source text: In yet another embodiment, a process for inhibiting plant cell growth using the bicyclic ABA and analogs of the present invention is described. The ability of bicyclic ABA and analogs of the present invention to inhibit plant cell growth may be assayed with a growth inhibition assay. In one assay, suspension-cultured corn cells are used in a well characterized experimental system that has been useful for comparing the biological activity and metabolism of ABA and ABA analogs (6).
# The growth inhibition assay using suspension-cultured corn cells is a well characterized experimental system that has been very useful for comparing the biological activity and metabolism of ABA and ABA analogs (6).
# Maize cell cultures were treated as described by Balsevich et. al. (6). The cultures were incubated on a rotary shaker for 4 days, and the cells were separated from the medium by vacuum filtration and weighed immediately. The effect of ABA and bicyclic ABA on cell growth was determined at various concentrations (0-10 μM) by calculating the percentage increase in fresh weight [(final weight×100/initial weight)−100)]. Measurements were performed in triplicate and average values were normalized to a control (untreated) value of 100%.
Molecule,"concentrations at which active/effective in inhibiting germination ([1]; tested 0.33-33 μM, 7-day test) [µM]","inhibitory activity (cell growth) relative to (+)-ABA ([2]; BMS maize suspension cells, 4 days, FIG. 6) [fold]",inhibition of growth of suspension-cultured maize cells [2],"germination inhibition compared with comparator (in words) ([1]; (+)-[8] versus (+) ABA, (−)-[8] versus (+)-[8])","inhibition of seed germination (in words) ([1]; all concentrations (0.33-33 μM), 7-day test period)",germination index ([1]; 7-day test)
"abscisic acid [(−) enantiomer of ABA [1], reference compound]",≥ 3.33,,,,,
"CC(=C/C(=O)O)/C=C/[C@@]1(O)c2ccccc2C(=O)CC1(C)C [(+)-[8], (2Z,4E)-5-((1S)-1-Hydroxy-2,2-dimethyl-4-oxo-1,2,3,4-tetrahydro-naphthalen-1-yl)-3-methyl-penta-2,4-dienoic acid]",,~10,inhibited the growth,more effective germination inhibitor than (+) ABA,highly effective,less than 0.1
"CC1=CC(=O)CC(C)(C)C1(O)/C=C/C(C)=C\C(=O)O (single isomer, unassigned; (+)) [(+)-ABA, abscisic acid, reference compound]",,,inhibited the growth,,,~0.4
